Experimental data published in ChEMBL document CHEMBL3885861, “Open TG-GATES”.

Organism: Rattus norvegicus
Assay: Open TG-GATES - Regimen: Single
Format: toxicity, organism-based, Sprague-Dawley
Set-up: regimen Single, gender Male, age 6 weeks
Settings: in vivo, ip, 0 mg/kg, route intraperitoneal injection, dose level Control; for APTT / Bas / Eos / Fbg / Hb / Ht / Lym / MCH / MCHC / MCV / Mono / Neu / PT / Plat / RBC / Ret / WBC: tissue Blood; for KIDNEY_L / KIDNEY_R / KIDNEY_TOTAL: tissue Kidney; for LIVER: tissue Liver; for A/G / ALP / ALT / AST / BUN / CRE / Ca / Cl / DBIL / GLC / IP / K / LDH / Na / PL / RALB / TBIL / TC / TG / TP / gamma-GTP: tissue Plasma

CC(C)=CC(=O)C=C(C)C [PHORONE]
TERMINAL_BW (3 h): 224.3 g
APTT (3 h): 17.2 s
Bas (3 h): 0%
Eos (3 h): 1%
Fbg (3 h): 227.4 mg/dL
Hb (3 h): 13.5 g/dL
Ht (3 h): 40.2%
Lym (3 h): 71%
MCH (3 h): 22.1 pg
MCHC (3 h): 33.5%
MCV (3 h): 65.9 fL
Mono (3 h): 8.2%
Neu (3 h): 19.8%
PT (3 h): 12.2 s
Plat (3 h): 114.4 x10_4/uL
RBC (3 h): 609.2 x10_4/ul
Ret (3 h): 9.2%
WBC (3 h): 97 x10_2/uL
KIDNEY_L (3 h): 1 g
KIDNEY_R (3 h): 1 g
KIDNEY_TOTAL (3 h): 2 g
LIVER (3 h): 10.7 g
A/G (3 h): 1.9
ALP (3 h): 863.8 IU/L
ALT (3 h): 35.2 IU/L
AST (3 h): 73.4 IU/L
BUN (3 h): 13.6 mg/dL
CRE (3 h): 0.5 mg/dL
Ca (3 h): 11.1 mg/dL
Cl (3 h): 106.2 meq/L
DBIL (3 h): 0.02 mg/dL
GLC (3 h): 195 mg/dL
IP (3 h): 9.9 mg/dL
K (3 h): 5.1 meq/L
LDH (3 h): 86 IU/L
Na (3 h): 139.6 meq/L
PL (3 h): 142.8 mg/dL
RALB (3 h): 3.6 g/dL
TBIL (3 h): 0.4 mg/dL
TC (3 h): 75.8 mg/dL
TG (3 h): 99 mg/dL
TP (3 h): 5.6 g/dL
gamma-GTP (3 h): 1.4 IU/L
TERMINAL_BW (6 h): 219.5 g
APTT (6 h): 17.4 s
Bas (6 h): 0%
Eos (6 h): 0.6%
Fbg (6 h): 223.8 mg/dL
Hb (6 h): 13.2 g/dL
Ht (6 h): 39.7%
Lym (6 h): 74.6%
MCH (6 h): 21.2 pg
MCHC (6 h): 33.2%
MCV (6 h): 63.9 fL
Mono (6 h): 4.4%
Neu (6 h): 20.4%
PT (6 h): 12.3 s
Plat (6 h): 118.6 x10_4/uL
RBC (6 h): 620.2 x10_4/ul
Ret (6 h): 9.1%
WBC (6 h): 102.1 x10_2/uL
KIDNEY_L (6 h): 0.9 g
KIDNEY_R (6 h): 0.9 g
KIDNEY_TOTAL (6 h): 1.9 g
LIVER (6 h): 9.7 g
A/G (6 h): 2
ALP (6 h): 700.4 IU/L
ALT (6 h): 34.8 IU/L
AST (6 h): 72.8 IU/L
BUN (6 h): 12.6 mg/dL
CRE (6 h): 0.5 mg/dL
Ca (6 h): 10.6 mg/dL
Cl (6 h): 105.2 meq/L
DBIL (6 h): 0.024 mg/dL
GLC (6 h): 210.4 mg/dL
IP (6 h): 10.2 mg/dL
K (6 h): 4.7 meq/L
LDH (6 h): 65 IU/L
Na (6 h): 139 meq/L
PL (6 h): 137 mg/dL
RALB (6 h): 3.5 g/dL
TBIL (6 h): 0.4 mg/dL
TC (6 h): 77.8 mg/dL
TG (6 h): 50 mg/dL
TP (6 h): 5.2 g/dL
gamma-GTP (6 h): 1.2 IU/L
TERMINAL_BW (9 h): 217.4 g
APTT (9 h): 17.2 s
Bas (9 h): 0%
Eos (9 h): 0.8%
Fbg (9 h): 246.8 mg/dL
Hb (9 h): 13.1 g/dL
Ht (9 h): 39.7%
Lym (9 h): 70%
MCH (9 h): 21.7 pg
MCHC (9 h): 33.1%
MCV (9 h): 65.5 fL
Mono (9 h): 4.6%
Neu (9 h): 25.2%
PT (9 h): 11.9 s
Plat (9 h): 112.4 x10_4/uL
RBC (9 h): 606.8 x10_4/ul
Ret (9 h): 9.2%
WBC (9 h): 108.4 x10_2/uL
KIDNEY_L (9 h): 0.9 g
KIDNEY_R (9 h): 1 g
KIDNEY_TOTAL (9 h): 1.9 g
LIVER (9 h): 9 g
A/G (9 h): 2.1
ALP (9 h): 720.6 IU/L
ALT (9 h): 29.8 IU/L
AST (9 h): 60.6 IU/L
BUN (9 h): 11.4 mg/dL
CRE (9 h): 0.5 mg/dL
Ca (9 h): 10.7 mg/dL
Cl (9 h): 105.8 meq/L
DBIL (9 h): 0.066 mg/dL
GLC (9 h): 200.6 mg/dL
IP (9 h): 10.6 mg/dL
K (9 h): 4.5 meq/L
LDH (9 h): 74.8 IU/L
Na (9 h): 138.8 meq/L
PL (9 h): 138.6 mg/dL
RALB (9 h): 3.8 g/dL
TBIL (9 h): 0.4 mg/dL
TC (9 h): 79.8 mg/dL
TG (9 h): 42.8 mg/dL
TP (9 h): 5.6 g/dL
gamma-GTP (9 h): 1.4 IU/L
TERMINAL_BW (24 h): 237.9 g
APTT (24 h): 17.4 s
Bas (24 h): 0%
Eos (24 h): 1%
Fbg (24 h): 276.4 mg/dL
Hb (24 h): 12.9 g/dL
Ht (24 h): 38.6%
Lym (24 h): 73.6%
MCH (24 h): 21.5 pg
MCHC (24 h): 33.3%
MCV (24 h): 64.8 fL
Mono (24 h): 4.6%
Neu (24 h): 20.6%
PT (24 h): 11.7 s
Plat (24 h): 118.3 x10_4/uL
RBC (24 h): 596.2 x10_4/ul
Ret (24 h): 8.4%
WBC (24 h): 101.3 x10_2/uL
KIDNEY_L (24 h): 1 g
KIDNEY_R (24 h): 1.1 g
KIDNEY_TOTAL (24 h): 2.1 g
LIVER (24 h): 11.7 g
A/G (24 h): 1.9
ALP (24 h): 856.2 IU/L
ALT (24 h): 28.8 IU/L
AST (24 h): 55.6 IU/L
BUN (24 h): 16.4 mg/dL
CRE (24 h): 0.5 mg/dL
Ca (24 h): 10.9 mg/dL
Cl (24 h): 103.2 meq/L
DBIL (24 h): 0.026 mg/dL
GLC (24 h): 195.4 mg/dL
IP (24 h): 8.7 mg/dL
K (24 h): 4.9 meq/L
LDH (24 h): 66.2 IU/L
Na (24 h): 138.4 meq/L
PL (24 h): 140.6 mg/dL
RALB (24 h): 3.6 g/dL
TBIL (24 h): 0.4 mg/dL
TC (24 h): 78.4 mg/dL
TG (24 h): 80.8 mg/dL
TP (24 h): 5.6 g/dL
gamma-GTP (24 h): 1.6 IU/L
